What follows are compounds tested against T1, hormone sensitive lipase, HSL (Rattus norvegicus, UniProt P15304) (assay: HSL inhibition assay). Conditions: partially purified HSL from rat fat cells; [3H]trioleoylglycerol substrate; 37° C. for 30 min.
T1 construct: Isolated rat fat cells are obtained from epididymal adipose tissue; from tissue; host or cells: fat cells from epididymal adipose tissue of male Wistar rats
T1 sequence (P15304 301-1068 limits assumed): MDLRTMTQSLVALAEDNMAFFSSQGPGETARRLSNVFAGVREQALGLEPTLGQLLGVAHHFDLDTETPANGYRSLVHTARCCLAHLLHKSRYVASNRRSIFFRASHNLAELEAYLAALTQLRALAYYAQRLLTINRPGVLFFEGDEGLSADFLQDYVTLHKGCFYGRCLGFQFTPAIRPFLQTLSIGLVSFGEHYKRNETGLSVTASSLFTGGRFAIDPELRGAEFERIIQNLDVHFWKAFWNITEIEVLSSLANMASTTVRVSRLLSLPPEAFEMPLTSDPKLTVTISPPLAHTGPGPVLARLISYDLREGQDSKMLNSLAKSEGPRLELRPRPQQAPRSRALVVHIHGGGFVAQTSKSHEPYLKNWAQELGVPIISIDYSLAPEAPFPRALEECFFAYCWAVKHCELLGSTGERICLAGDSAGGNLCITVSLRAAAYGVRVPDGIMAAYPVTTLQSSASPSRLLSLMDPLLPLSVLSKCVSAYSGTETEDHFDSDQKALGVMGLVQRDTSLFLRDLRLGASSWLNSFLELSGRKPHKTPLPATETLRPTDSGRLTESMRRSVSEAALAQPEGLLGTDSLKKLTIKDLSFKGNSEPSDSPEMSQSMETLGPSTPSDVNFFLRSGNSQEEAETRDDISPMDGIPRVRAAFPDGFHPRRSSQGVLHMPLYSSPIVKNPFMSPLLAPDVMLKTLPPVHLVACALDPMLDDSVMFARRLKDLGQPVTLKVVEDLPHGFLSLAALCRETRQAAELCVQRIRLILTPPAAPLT
Format: biochemical
Experimental: Preparation of the Partially Purified HSL:
Isolated rat fat cells are obtained from epididymal adipose tissue from untreated male rats (Wistar, 220-250 g) by collagenase treatment in accordance with published methods (e.g. S, Nilsson et al., Anal. Biochem. 158, 1986, 399-407; G. Fredrikson et al., J. Biol. Chem. 256, 1981, 6311-6320; H. Tornquist et al., J. Biol. Chem. 251, 1976, 813-819). The fat cells from 10 rats are washed three times by flotation with 50 ml of homogenization buffer ([…] Tris/HCl, pH 7.4, 0.25 M sucrose, 1 mM ETDA, 1 mM DTT, 10 μg/ml leupeptin, 10 μg/ml antipain, 20 μg/ml pepstatin) each time and finally taken up in 10 ml of homogenization buffer. The fat cells are homogenized in a Teflon-in-glass homogenizer (Braun-Melsungen) by 10 strokes at 1500 rpm and 15° C. The homogenate is centrifuged (Sorvall SM24 tubes, 5000 rpm, 10 min, 4° C.). The subnatant between the layer of fat at the top and the pellet is removed and the centrifugation is repeated. The subnatant resulting therefrom is centrifuged again (Sorvall SM24 tubes, 20 000 rpm, 45 min, 4° C.). […] After incubation at 4° C. for 60 min (shaking at intervals of 15 min), the mixture is centrifuged (Sorvall SM24 tubes, 3000 rpm, 10 min, 4° C.). The supernatant is adjusted to pH 5.2 by adding glacial acetic acid and is incubated at 4° C. for 30 min. The precipitates are collected by centrifugation (Sorvall SS34, 12 000 rpm, 10 min, 4° C.) and suspended in 2.5 ml of 20 mM Tris/HCl, pH 7.0, 1 mM EDTA, 65 mM NaCl, 13% sucrose, 1 mM DTT, 10 μg/ml leupeptin/pepstatin/antipain. The suspension is dialyzed against 25 mM Tris/HCl, pH 7.4, 50% glycerol, 1 mM DTT, 10 μg/ml leupeptin, pepstatin, antipain at 4° C. overnight and then loaded onto a hydroxiapatite column (0.1 g per 1 ml of suspension, equilibrated with 10 mM potassium phosphate, pH 7.0, 30% glycerol, 1 mM DTT). The column is washed with four volumes of equilibration buffer at a flow rate of 20 to 30 ml/h. The HSL is eluted with one volume of equilibration buffer containing 0.5 M potassium phosphate and then dialyzed (see above) and concentrated 5- to 10-fold by ultrafiltration (Amicon Diaflo PM 10 Filter) at 4° C. The partially purified HSL can be stored at −70° C. for 4 to 6 weeks.
To prepare the substrate, 25-50 μCi of [3H]trioleoylglycerol (in toluene), 6.8 μmol of unlabeled trioleoylglycerol and 0.6 mg of phospholipids (phosphatidylcholine/phosphatidylinositol 3:1 w/v) are mixed, dried with N2 and then taken up in 2 ml of 0.1 M KPi (pH 7.0) by ultrasound treatment (Branson 250, microtip, setting 1-2, 2×1 min with an interval of 1 min). After addition of 1 ml of KPi and renewed ultrasound treatment (4×30 sec on ice with intervals of 30 sec), 1 ml of 20% BSA (in KPi) is added (final concentration of trioleoylglycerol 1.7 mM). For the reaction, 100 μl of substrate solution are pipetted into 100 μl of HSL solution (HSL prepared as above, diluted in 20 mM KPi, pH 7.0, 1 mM EDTA, 1 mM DTT, 0.02% BSA, 20 μg/ml pepstatin, 10 μg/ml leupeptin) and incubated at 37° C. for 30 min. Addition of 3.25 ml of methanol/chloroform/heptane (10:9:7) and of 1.05 ml of 0.1 M K2CO3, 0.1 M boric acid (pH 10.5) is followed by thorough mixing and finally centrifugation (800×g, 20 min). After phase separation, one equivalent of the upper phase (1 ml) is removed and the radioactivity is determined by liquid scintillation measurement.
Substances are normally tested in four independent mixtures. The inhibition of the HSL enzymatic activity by a test substance is determined by comparing with an uninhibited control reaction. The IC50 is calculated from an inhibition plot with at least 10 concentrations of the test substance. The GRAPHIT, Elsevier-BIOSOFT software package is used to analyze the data.
For `CC1CCN(C(=O)n2nnc3nc(Cl)ccc32)CC1` [Example 1, (5-Chloro-[1,2,3]triazolo[4,5-b]pyridin-1-yl)-(4-methylpiperidin-1-yl)-methanone], the IC50 was 0.5 µM.
In the case of `O=C(N1CCc2ccccc2C1)n1nnc2ncccc21` [Example 4], the IC50 is reported as 0.07 µM.
Compound `CC1CCN(C(=O)n2nnc3ncc(Cl)cc32)CC1` [Example 5, (6-Chloro-[1,2,3]triazolo[4,5-b]pyridin-1-yl)-(4-methyl-piperidin-1-yl)-methanone] has an IC50 of 0.3 µM.
`Cc1cccc(C)c1N1CCN(C(=O)n2nnc3ncccc32)CC1` [Example 14] showed an IC50 of 0.607 µM.
Compound `COC(=O)c1ccc(C2CCN(C(=O)n3nnc4ncccc43)CC2)cc1` [Example 23] has an IC50 of 0.45 µM.
With `CCCCCN(CCCCC)C(=O)n1nnc2ncccc21` [Example 24] the IC50 was 0.175 µM.
For `Cc1ccccc1N1CCN(C(=O)n2nnc3ncccc32)CC1` [Example 25], the IC50 was 0.215 µM.
Compound `O=C(N1CCN(c2ccc(-c3ccccc3)cc2)CC1)n1nnc2ncccc21` [Example 26] has an IC50 of 0.198 µM.
`CC1CC(C)CN(C(=O)n2nnc3ncccc32)C1` (centres unmarked) [Example 30] was tested, and the IC50 was 0.585 µM.
With `CCCC1CCN(C(=O)n2nnc3ncccc32)CC1` [Example 31] the IC50 was 0.136 µM.
`O=C(N1CCC(c2ccc3ccccc3c2)CC1)n1nnc2ncccc21` [Example 33] gave an IC50 of 0.112 µM.
`O=C(C1CCC2(CC1)CCN(c1ccccc1)C2=O)n1nnc2ncccc21` (centres unmarked) [Example 35] gave an IC50 of 0.78 µM.
Compound `CCOc1ccc(N2CCN(C(=O)n3nnc4ncccc43)CC2)cc1` [Example 37] has an IC50 of 0.576 µM.
With `O=C(N1CCN(c2ccc(OCc3ccccc3)cc2)CC1)n1nnc2ncccc21` [Example 41] the IC50 was 0.062 µM.
Work on `Nc1ccc(C2CCN(C(=O)n3nnc4ncccc43)CC2)cc1` [Example 42] yielded an IC50 of 0.159 µM.
In the case of `O=C(N1CCC(c2ccccc2F)CC1)n1nnc2ncccc21` [Example 43], the IC50 is reported as 0.763 µM.
Work on `O=C(N1CCC(CCc2ccccc2)CC1)n1nnc2ncccc21` [Example 48] yielded an IC50 of 0.662 µM.
In the case of `CC1(C)CCCN(C(=O)n2nnc3ncccc32)C1` [Example 50], the IC50 is reported as 0.367 µM.
For `CCCCCCCCN1CCN(C(=O)n2nnc3ncccc32)CC1` [Example 51], the IC50 was 0.237 µM.
`O=C(N1CCC(c2cccc(C(F)(F)F)c2)CC1)n1nnc2ncccc21` [Example 53] gave an IC50 of 0.826 µM.
`CC1CCN(C(=O)n2nnc3ccc(Cl)nc32)CC1` [Example 61, (5-chloro-[1,2,3]triazolo[4,5-b]pyridin-3-yl)-(4-methylpiperidin-1-yl)-methanone] showed an IC50 of 0.03 µM.
With `CC1CCN(C(=O)n2nnc3cccnc32)CC1` [Example 62] the IC50 was 0.16 µM.
With `CC1CCCN(C(=O)n2nnc3cccnc32)C1` (centres unmarked) [Example 63] the IC50 was 0.965 µM.
`O=C(N1CCc2ccccc2C1)n1nnc2cccnc21` [Example 64] gave an IC50 of 0.03 µM.
For `O=C(N1CCc2ccccc2C1)n1nnc2ccc(Cl)nc21` [Example 66, (5-chloro-[1,2,3]triazolo[4,5-b]pyridin-3-yl)-(3,4-dihydro-1H-isoquinolin-2-yl)-methanone], the IC50 was 0.15 µM.

What follows are compounds tested against T2, endothelial lipase (EL) (Homo sapiens, UniProt Q9Y5X9) (assay: EL inhibition assay). Conditions: EL from conditioned medium of recombinant cell lines (CHO, HEK293); Bodipy phospholipid substrate; 37° C. for 60 minutes.
T2 construct: made in house; host or cells: recombinant CHO or HEK293 cell lines; concentrated conditioned medium
T2 sequence (Q9Y5X9 21-500): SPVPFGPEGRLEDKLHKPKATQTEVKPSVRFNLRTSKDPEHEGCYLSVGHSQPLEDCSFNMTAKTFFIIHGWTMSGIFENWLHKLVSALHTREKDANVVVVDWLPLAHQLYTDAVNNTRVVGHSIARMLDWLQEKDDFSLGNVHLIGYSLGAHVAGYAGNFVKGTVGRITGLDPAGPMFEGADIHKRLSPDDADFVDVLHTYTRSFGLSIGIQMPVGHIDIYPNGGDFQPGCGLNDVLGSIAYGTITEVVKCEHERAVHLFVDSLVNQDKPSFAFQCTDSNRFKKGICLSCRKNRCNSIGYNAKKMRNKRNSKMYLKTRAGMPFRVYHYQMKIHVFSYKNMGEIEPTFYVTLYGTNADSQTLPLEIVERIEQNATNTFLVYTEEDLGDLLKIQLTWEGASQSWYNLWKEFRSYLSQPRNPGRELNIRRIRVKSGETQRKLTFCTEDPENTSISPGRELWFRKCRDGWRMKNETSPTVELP
Format: biochemical
Text: EL is released as secretory protein in high concentration into cell culture medium (conditioned medium) by recombinant cell lines (CHO, HEK293). This is employed as enzyme solution after concentration.
The phospholipase-specific substrate 1,2-bis(4,4-difluoro-5,7-dimethyl-4-bora-3a,4a-diaza-s-indacene-3-undecanoyl)-sn-glycero-3-phosphocholine, (manufacturer Molecular Probes) is used to characterize the enzymatic activity of endothelial lipase and the effect of inhibitors. Hydrolysis of the A1 ester linkage of this phospholipid by the enzyme liberates the fluorescent dye Bodipy which can be detected after separation by thin-layer chromatography on an HPTLC plate (silica gel 60, Merck) or directly in the reaction vessel by measuring the fluorescence. The substrate solution is prepared by taking up 100 μg of 1,2-bis(4,4-difluoro-5,7-dimethyl-4-bora-3a,4a-diaza-s-indacene-3-undecanoyl)-sn-glycero-3-phospho-choline (manufacturer Molecular Probes), 2.4 mg of tripalmitin (Sigma) and 7.9 mg of DOP-choline (1,2-dioleoyl-sn-glycero-3-phosphocholine) in 393 μl of chloroform and then transferring 157 μl into a fresh reaction vessel. After evaporation of the solvent, the lipid mixture is dissolved in 4 ml of 200 mM TRIS-HCl, 150 mM sodium chloride, pH=7.4, by sonication twice. The subsequent enzymic reaction takes place at 37° C. for 60 minutes. For this purpose, 45 μl of the substrate solution are incubated with 1 μl of inhibitor of appropriate concentration (dissolved in DMSO, pure DMSO solution is used as control) and 5 μl of enzyme solution (conditioned medium). Then 3 μl of the assay mixture are loaded onto an HPTLC plate (silica gel 60, Merck), and the liberated fluorescent dye is separated for detection with an eluent (diethyl ether:petroleum benzene:acetic acid [78:22:1]). After evaporation of the eluent, the plate is read in a fluorescence scanner. An increased release of the fluorescent dye in the uninhibited reaction is to be observed as a measure of the enzymic activity.
The enzymatic activity is reduced as a function of the inhibitor concentration used, and the inhibitor concentration at which a half-maximum enzymic activity is observed is called IC50.
`Cc1ccccc1CNC(=O)n1nnc2nc(Cl)ccc21` [Example 54] was tested, and the IC50 was 0.74 µM.
`Cc1ccccc1CNC(=O)n1nnc2ncc(Cl)cc21` [Example 55] showed an IC50 of 0.58 µM.
In the case of `CCCCCCNC(=O)n1nnc2nc(Cl)ccc21` [Example 56], the IC50 is reported as 0.04 µM.
In the case of `Cc1ccccc1CNC(=O)n1nnc2cc(Cl)cnc21` [Example 68], the IC50 is reported as 1.24 µM.
